From US11872228B2, “Pharmaceutical composition containing thiamine derivative for prevention or treatment of sepsis” (KYUNGPOOK NATIONAL UNIVERSITY INDUSTRY-ACADEMIC COOPERATION …, priority 2021, dated 2024)
Where two headings read alike, the source gives them in different places.

Experiments:
TNFα [1] = assay: Inhibition of TNFα expression in LPS-activated dendritic cells (ELISA of supernatants); type: cell-based, C57BL/6J male mice; details: for TNFα (pg/mL): dendritic cells, 100 ng/mL LPS 18 h; for TNFα expression level relative to LPS alone: LPS-activated dendritic cells
Experimental: (§1) The dendritic cells at 1×10^6 cells/mL were treated with benfotiamine and fursultiamine at different concentrations of 0, 1, 10, and 100 and allithiamine at different concentrations of 0, 1, and 10 μM.
Thereafter, the dendritic cells were activated with 100 ng/mL LPS for 18 hours.

IL-1β [2] = assay: Inhibition of IL-1β expression in LPS-primed, ATP-treated dendritic cells; type: cell-based, C57BL/6J male mice; details: for IL-1β: LPS priming + 5 mM ATP
Experimental: Bone marrow was extracted from the legs of six- to eight-week old C57BL/6J male mice, and subjected to red blood cell (RBC) lysis, followed by differentiation into dendritic cells in RPMI 1640 medium (10% fetal bovine serum (FBS) and 1% penicillin-streptomycin) along with 20 ng/ml granulocyte-macrophage colony-stimulating factor (GM-CSF) for six days. The dendritic cells at 1×10^6 cells/mL were treated with benfotiamine and fursultiamine at different concentrations of 0, 1, 10, and 100 and allithiamine at different concentrations of 0, 1, and 10 μM.
The dendritic cells were subjected to pro-IL1b priming by the treatment with 500 ng/mL LPS for 3 hours, and then treated with benfotiamine at 0, 10, 50, or 100 and fursultiamine at 0, 10, 50, or 100 μM, for 15 minutes. Then, pro-IL1b was converted into IL-1β through pro-IL1b cleavage, followed by 5 mM ATP treatment for inducing inflammasome formation.

CD86 [3] = assay: CD86 expression in CD11c+ dendritic cells by flow cytometry; type: cell-based, C57BL/6J male mice; details: 50 μM, 100 ng/mL LPS
IL-1β [4] = test system: IL-1β
TNFα [5] = assay: Inhibition of TNFα expression in LPS-activated dendritic cells (ELISA of supernatants); type: cell-based, C57BL/6J male mice; details: for TNFα expression level relative to LPS alone: LPS-activated dendritic cells; for TNFα: dendritic cells not stimulated by LPS
[6] = test system: LPS-induced sepsis mouse model
Experimental: (The signs of the moribund state: impaired mobility, inability to maintain upright position, prolonged lack of activity and labored breathing)
Six- to eight-week old C57BL/6J male mice were grouped, each group containing seven mice. The whole experimental schedule is shown FIG. 1. The mice were fed fursultiamine 24 hours and 30 minutes before intraperitoneal injection of 40 mg/kg LPS, and then again administered fursultiamine 6 hours after the intraperitoneal injection, and then the survival rates of the mice were monitored and the results are shown in FIG. 2 and Table 1.

CD86 [7] = assay: CD86 expression in CD11c+ dendritic cells by flow cytometry; type: cell-based, C57BL/6J male mice
Experimental: as §1
(§2) The dendritic cells were measured for CD40 and CD86 in CD11c+ cells by flow cytometry, and the results are shown in FIGS. 6A and 6B and Tables 5 and 6.

CD40 = CD40 expression in CD11c+ dendritic cells by flow cytometry; type: cell-based, C57BL/6J male mice
Experimental: as §1, §2

[8] = test system: LPS-induced sepsis mouse model; assay: Survival rate of murine sepsis model, allithiamine treatment; type: in vivo, C57BL/6J male mice
Experimental: The mice were intravenously (I.V.) administered 5 mg/kg allithiamine immediately before intraperitoneal injection of 50 mg/kg LPS, and then the survival rates were monitored (allithiamine 5 mg/kg co-treatment). In addition, the mice were intravenously administered 5 mg/kg allithiamine three hours after LPS injection, and then the survival rates were monitored (allithiamine 5 mg/kg 3 h-delayed co-treatment), and the results are shown in FIG. 3 and Table 2.

TNFα [9] = assay: Inhibition of TNFα expression in vivo (allithiamine along with LPS); set-up: species or system mice
Experimental: The inhibition of TNFα expression in vivo was investigated by the administration of 5 mg/kg allithiamine along with 50 mg/kg LPS, and the results are shown in FIG. 7A and Table 7.

[10] = 1 μM, dendritic cells, 100 ng/mL LPS
[11] = 10 μM, dendritic cells, 100 ng/mL LPS
[12] = 100 μM, dendritic cells not stimulated by LPS
[13] = 100 μM, dendritic cells, 100 ng/mL LPS
[14] = allithiamine 5 mg/kg along with LPS 50 mg/kg
[15] = 10 μM, dendritic cells not stimulated by LPS

SMILES: CC(=C(CCO)SSCC1CCCO1)N(C=O)Cc1cnc(C)nc1N (stereo in doubt) [Fursultiamine, fursultiamine]
- TNFα (pg/mL) (TNFα [1]; 1 μM): 4,954.64 pg/mL
- TNFα expression level relative to LPS alone (TNFα [1]; 10 μM): about 68.60%
- TNFα (pg/mL) (TNFα [1]; 10 μM): 3,600.63 pg/mL
- TNFα (pg/mL) (TNFα [1]; 100 μM): 1,628.26 pg/mL
- IL-1β (IL-1β [2]; 10 μM): 878.0075 pg/mL
- IL-1β expression level relative to LPS + ATP alone (IL-1β [2]; 50 μM): about 85.8237%
- IL-1β (IL-1β [2]; 50 μM): 799.4891 pg/mL
- IL-1β expression level relative to LPS + ATP alone (IL-1β [2]; 100 μM): about 63.6037%
- IL-1β (IL-1β [2]; 100 μM): 592.4987 pg/mL
- CD86 (Mean fluorescence intensity; MFI) (CD86 [3]): 1,275 MFI
- IL-1β (IL-1β [4]; fursultiamine (50 mg/kg as in table; 100 mg/kg in text) along with LPS, 0 h): 4.483 pg/mL
- IL-1β (IL-1β [4]; fursultiamine along with LPS, 1 h): 6.115 pg/mL
- IL-1β (IL-1β [4]; fursultiamine along with LPS, 3 h): 96.715 pg/mL
- IL-1β (IL-1β [4]; fursultiamine along with LPS, 6 h): 186.088 pg/mL
- IL-1β expression level relative to the control without administration (IL-1β [4]; fursultiamine along with LPS, 6 hours): about 54.936%
- IL-1β (IL-1β [4]; fursultiamine along with LPS, 12 h): 495.824 pg/mL
- IL-1β expression level relative to the control without administration (IL-1β [4]; fursultiamine along with LPS, 12 hours): about 60.777%
- IL-1β (IL-1β [4]; fursultiamine along with LPS, 18 h): 171.451 pg/mL
- IL-1β expression level relative to the control without administration (IL-1β [4]; fursultiamine along with LPS, 18 hours): about 29.673%
- TNFα expression level relative to LPS alone (TNFα [5]; 50 μM): about 57.22%
- TNFα (pg/mL) (TNFα [5]; 50 μM, dendritic cells, 100 ng/mL LPS 18 h): 3,003.47 pg/mL
- TNFα expression level relative to LPS alone (TNFα [5]; 100 μM): about 31.02%
- TNFα (TNFα [5]; 100 μM): 38.37 pg/mL
- Survival despite LPS injection (in words) ([6]; fed 100 mg/kg, 40 mg/kg LPS i.p.): not dead
- Percent survival (%) ([6]; fursultiamine 100 mg/kg fed 24 h and 30 min before and 6 h after 40 mg/kg LPS i.p., 0 d): 100%
- Percent survival (%) ([6]; fursultiamine 100 mg/kg fed, 40 mg/kg LPS i.p., 1 d): 100%
- Percent survival (%) ([6]; fursultiamine 100 mg/kg fed, 40 mg/kg LPS i.p., 2 d): 100%
- Percent survival (%) ([6]; fursultiamine 100 mg/kg fed, 40 mg/kg LPS i.p., 3 d): 100%
- Percent survival (%) ([6]; fursultiamine 100 mg/kg fed, 40 mg/kg LPS i.p., 4 d): 100%
- Percent survival (%) ([6]; fursultiamine 100 mg/kg fed, 40 mg/kg LPS i.p., 5 d): 100%
- Percent survival (%) ([6]; fursultiamine 100 mg/kg fed, 40 mg/kg LPS i.p., 6 d): 100%
- Percent survival (%) ([6]; fursultiamine 100 mg/kg fed, 40 mg/kg LPS i.p., 7 d): 100%
- CD86 (Mean fluorescence intensity; MFI) (CD86 [7]; [10]): 2,684 MFI
- CD86 (Mean fluorescence intensity; MFI) (CD86 [7]; [11]): 2,864 MFI
- CD86 expression level relative to LPS alone (CD86 [7]; 100 μM, dendritic cells): about 13%
- CD86 (Mean fluorescence intensity; MFI) (CD86 [7]; [12]): 382 MFI
- CD86 (Mean fluorescence intensity; MFI) (CD86 [7]; [13]): 351 MFI
- CD40 (Mean fluorescence intensity; MFI) (CD40; [10]): 1,992 MFI
- CD40 (Mean fluorescence intensity; MFI) (CD40; [11]): 2,026 MFI
- CD40 expression level relative to LPS alone (CD40; 100 μM, dendritic cells): about 62%
- CD40 (Mean fluorescence intensity; MFI) (CD40; [12]): 253 MFI
- CD40 (Mean fluorescence intensity; MFI) (CD40; [13]): 1,245 MFI

SMILES: C=CCSS/C(CCO)=C(/C)N(C=O)Cc1cnc(C)nc1N [Allithiamine, allithiamine]
- TNFα expression level relative to LPS alone (TNFα [1]; 1 μM): about 88.68%
- TNFα (pg/mL) (TNFα [1]; 1 μM): 4,654.84 pg/mL
- TNFα expression level relative to LPS alone (TNFα [1]; 10 μM): about 74.68%
- TNFα (pg/mL) (TNFα [1]; 10 μM): 3,919.75 pg/mL
- Percent survival (%) ([8]; 5 mg/kg i.v. 3 h-delayed treatment (3 h after 50 mg/kg LPS i.p.), 0 h): 100%
- Percent survival (%) ([8]; 5 mg/kg i.v. 3 h-delayed treatment, 50 mg/kg LPS, 20 h): 100%
- Percent survival (%) ([8]; 5 mg/kg i.v. 3 h-delayed treatment, 50 mg/kg LPS, 24 h): 100%
- Percent survival (%) ([8]; 5 mg/kg i.v. 3 h-delayed treatment, 50 mg/kg LPS, 28 h): 83.3%
- Percent survival (%) ([8]; 5 mg/kg i.v. 3 h-delayed treatment, 50 mg/kg LPS, 32 h): 83.3%
- Percent survival (%) ([8]; 5 mg/kg i.v. 3 h-delayed treatment, 50 mg/kg LPS, 36 h): 83.3%
- Percent survival (%) ([8]; 5 mg/kg i.v. 3 h-delayed treatment, 50 mg/kg LPS, 40 h): 83.3%
- Percent survival (%) ([8]; 5 mg/kg i.v. 3 h-delayed treatment, 50 mg/kg LPS, 44 h): 66.7%
- Percent survival (%) ([8]; 5 mg/kg i.v. 3 h-delayed treatment, 50 mg/kg LPS, 48 h): 66.7%
- Percent survival (%) ([8]; 5 mg/kg i.v. 3 h-delayed treatment, 50 mg/kg LPS, 52 h): 66.7%
- Percent survival (%) ([8]; 5 mg/kg i.v. 3 h-delayed treatment, 50 mg/kg LPS, 56 h): 66.7%
- Percent survival (%) ([8]; 5 mg/kg i.v. 3 h-delayed treatment, 50 mg/kg LPS, 60 h): 66.7%
- Percent survival (%) ([8]; 5 mg/kg i.v. co-treatment (immediately before 50 mg/kg LPS i.p.), 0 h): 100%
- Percent survival (%) ([8]; 5 mg/kg i.v. co-treatment, 50 mg/kg LPS, 20 h): 100%
- Percent survival (%) ([8]; 5 mg/kg i.v. co-treatment, 50 mg/kg LPS, 24 h): 83.3%
- Percent survival (%) ([8]; 5 mg/kg i.v. co-treatment, 50 mg/kg LPS, 28 h): 83.3%
- Percent survival (%) ([8]; 5 mg/kg i.v. co-treatment, 50 mg/kg LPS, 32 h): 83.3%
- Percent survival (%) ([8]; 5 mg/kg i.v. co-treatment, 50 mg/kg LPS, 36 h): 66.7%
- Percent survival (%) ([8]; 5 mg/kg i.v. co-treatment, 50 mg/kg LPS, 40 h): 66.7%
- Percent survival (%) ([8]; 5 mg/kg i.v. co-treatment, 50 mg/kg LPS, 44 h): 66.7%
- Percent survival (%) ([8]; 5 mg/kg i.v. co-treatment, 50 mg/kg LPS, 48 h): 66.7%
- Percent survival (%) ([8]; 5 mg/kg i.v. co-treatment, 50 mg/kg LPS, 52 h): 66.7%
- Percent survival (%) ([8]; 5 mg/kg i.v. co-treatment, 50 mg/kg LPS, 56 h): 66.7%
- Percent survival (%) ([8]; 5 mg/kg i.v. co-treatment, 50 mg/kg LPS, 60 h): 66.7%
- TNFα (TNFα [5]; 10 μM): 78.51 pg/mL
- Reduction of TNFα expression relative to LPS alone (TNFα [9]; [14]): about 46.494%
- TNFα (pg/mL) (TNFα [9]; [14]): 2,084.883 pg/mL
- TNFα (TNFα [9]; allithiamine 5 mg/kg, without LPS): 82.442 pg/mL
- CD86 (Mean fluorescence intensity; MFI) (CD86 [7]; [10]): 2,184 MFI
- CD86 expression level relative to LPS alone (CD86 [7]; 10 μM, dendritic cells): about 64%
- CD86 (Mean fluorescence intensity; MFI) (CD86 [7]; [15]): 304 MFI
- CD86 (Mean fluorescence intensity; MFI) (CD86 [7]; [11]): 1,704 MFI
- CD40 (Mean fluorescence intensity; MFI) (CD40; [10]): 1,998 MFI
- CD40 expression level relative to LPS alone (CD40; 10 μM, dendritic cells): about 49%
- CD40 (Mean fluorescence intensity; MFI) (CD40; [15]): 253 MFI
- CD40 (Mean fluorescence intensity; MFI) (CD40; [11]): 982 MFI
